{"source": "patent US20100210506A1", "about": "“INTRANASAL ADMINISTRATION OF RAPID ACTING INSULIN” (MDRNA, INC., priority 2005, published 2010)", "key": {"[1]": {"tested_on": "S. aureus, A. niger, P. auerignosa", "assay": "Antimicrobial Effectiveness Testing, U.S. Pharmacopeial (USP <51>)", "type": "cell-based", "conditions": "USP and EP AET, insulin nasal spray formulations at neutral pH", "protocol": "AET Study 1 was conducted to determine the Antimicrobial Effectiveness (AET) of an insulin nasal spray placebo with methylparaben sodium, propylparaben sodium, and propylene glycol. Additionally, AET Study 1 examined the AET of increased EDTA alone. Approximately 120 mL of each formulation was manufactured and tested in duplicate (n=2 analyses per sample).\n(§1) The AET methods used were in compliance with the requirements for U.S. Pharmacopeial (USP) and European Pharmacopeial (EP) AET and are described in Tables 34 and 35, respectively. The formulations were also tested for pH (per SOP 403), appearance (visual), and osmolality (per SOP 4000)."}, "[2]": {"assay": "pH, appearance (visual) and osmolality of AET formulations", "type": "physicochemical", "conditions": "preservative within insulin nasal spray formulation", "protocol": "as §1"}}, "note": "“Also recorded” adds a separate entry of the source.", "data": [{"smiles": "CCCCCCCCCCCCC[N+](C)(C)Cc1ccccc1", "note": "[Benzalkonium chloride]", "values": [{"measurement": "antimicrobial effectiveness as preservative", "setting": "[1]", "value": "excellent preservative"}, {"measurement": "antimicrobial effectiveness as preservative", "setting": "[1]; listed as benzakonium chloride", "value": "best antimicrobial performance"}, {"measurement": "compatibility with insulin", "setting": "[2]", "value": "incompatible with insulin"}, {"measurement": "compatibility with insulin", "setting": "[2]; listed as benzakonium chloride", "value": "incompatible with insulin (caused precipitation)"}]}, {"smiles": "OCc1ccccc1", "note": "[Benzyl alcohol]", "values": [{"measurement": "antimicrobial effectiveness as preservative", "setting": "[1]", "value": "not effective preservatives at neutral pH; also recorded: ineffective as antimicrobial reagents"}, {"measurement": "antimicrobial effectiveness as preservative", "setting": "[1]; listed as benzyl alcohol", "value": "not effective preservatives"}]}, {"smiles": "CCO", "note": "[Ethanol]", "values": [{"measurement": "antimicrobial effectiveness as preservative", "setting": "[1]", "value": "antimicribal activity similar to that of methylparaben sodium/propylparaben sodium/propylene glycol; also recorded: not an effective preservative (at 1%)"}]}, {"smiles": "Cc1cccc(O)c1", "note": "[m-cresol]", "values": [{"measurement": "antimicrobial effectiveness as preservative", "setting": "[1]", "value": "not effective preservatives"}]}, {"smiles": "O=C([O-])c1ccccc1.[Na+]", "note": "[sodium benzoate]", "values": [{"measurement": "antimicrobial effectiveness as preservative", "setting": "[1]", "value": "not effective preservatives at neutral pH"}]}]}
